Experimental data published in US20260325655A1, “DECREASING THE INTRINSICALLY DISORDERED PROTEIN ALPHA-SYNUCLEIN’S LEVELS BY TARGETING ITS STRUCTURED MRNA WITH A RIBONUCLEASE TARGETING CHIMERA” (University of Florida Research Foundation, Incorporated, priority 2023, published 2026).

Tests used:
[1] = system: PD patient-derived neurons; assay: total RNA-seq in PD patient-derived dopaminergic neurons; assay type: cell-based, human
Method: RNA-seq analysis. Total RNA was quantified using the Qubit 2.0 Fluorometer (Invitrogen) and an Agilent 2100 Bioanalyzer RNA nano chip. Samples with RIN>9.0 were proceeded to library preparation using NEBNext Ultra II Directional RNA Kit (Cat. #E7760, NEB) following manufacture's protocol. Briefly, 200 ng of total RNA was depleted of ribosomal RNA using the NEBNext rRNA Depletion Module. The product was chemically fragmented using NEBNext Magnesium RNA Fragmentation Module (E6150S, NEB) the at 94° C. for 15 min. First-strand synthesis was performed with random primers, and second strand was synthesized with dUTP in place of dTTP. After end repair and 3′ adenylation, the cDNA was ligated with adaptors and then treated with USER enzyme (Uracil-specific excision reagent). The product was PCR amplified with Illumina-barcoded primers to generate the cDNA libraries. The final libraries were analyzed on the bioanalyzer DNA chips, pooled in equimolar ratios, and loaded onto the NextSeq 500 v2.5 flow cell and sequenced with 2×40 bp paired-end chemistry. The raw data were aligned to the human genome using STAR.^11 Read counts were extracted using featureCounts,^12 and the differential gene analysis was performed using Deseq2.^13
Dopamine neuron induction. For dopamine neuronal induction,^15,16 the dual-SMAD inhibition method^17 was used for floor plate (FP)-based midbrain dopamine (DA) neuron induction with modifications. Prior to differentiation, Matrigel matrix (BD) was thawed at 4° C. overnight or on ice until it is dissolved. Matrigel coated 6-well plates were prepared according to manufacturer's instructions and incubated at 37° C. for at least 1 h before use. iPSCs were dissociated with Accutase (STEMCELL Technologies) and plated (3.5×10^5-4×10^5 cells per cm^2) into a new Matrigel coated plate and grown in mTeSR medium (STEMCELL Technologies) with StemBeads FGF2 (StemCultures) and ROCK inhibitor Y27632 (5 μM, Tocris). After 24 to 48 h, when the cells reached 100% confluency, the differentiation protocol was initiated by feeding the cells with DMEM containing 15% KnockOut Serum Replacement (KSR, Gibco), 2 mM L-glutamine (L-Glut) and 10 μM β-mercaptoethanol for 11 days.
Floor Plate (FP) induction protocol was followed based on timed exposure to BMP inhibitor LDN193189 (100 nM, PeproTech), ALK inhibitor SB431542 (10 μM, Tocris), recombinant mouse sonic hedgehog N-terminus SHH C25II (100 ng/ml, R&D), Smoothened agonist Purmorphamine (2 μM, PeproTech) and GSK3 inhibitor CHIR99021 (CHIR; 3 μM, PeproTech). KSR medium was gradually shifted to N2 medium (Neurobasal/N2 with B27 Plus Supplement; Gibco) starting on day 5 of differentiation as described previously.^18 On day 11, the medium was changed to Neurobasal/B27/L-Glut containing medium (NB/B27; Gibco) supplemented with CHIR (until day 13) and with BDNF (20 ng/ml; PeproTech), ascorbic acid (0.2 mM), GDNF (20 ng/ml; PeproTech), dibutyryl cAMP (0.5 mM; PeproTech), TGFβ3 (1 ng/ml; PeproTech), and γ-secretase inhibitor DAPT (10 μM; PeproTech) for 9 days. On Day 20 and Day 30 (midbrain DA neuron precursor stages), cells were dissociated using Accutase and replated at high cell density (8× 10^5 cells per cm^2) in dishes pre-coated with 15 μg/ml polyornithine/1 μg/ml laminin/2 μg/ml fibronectin in differentiation medium (NB/B27+BDNF, ascorbic acid, GDNF, dbcAMP, TGFβ3 and DAPT). […]

SH-SY5Y cells = assay: cytoprotection of SH-SY5Y cells against α-synuclein pre-formed fibrils (PFF), LDH assay; assay type: cell-based, human; conditions: Syn-RIBOTAC vs Synucleozid 2.0
Method: Lactate Dehydrogenase (LDH) assay. SH-SY5Y cells in 96-well plates (~60% confluency) were pre-treated with compounds in growth medium for 24 h, followed by addition of 50 ng/μL of human α-synuclein pre-formed fibrils (PFFs, SPR-322 from Eagle Biosciences). The cells were then incubated for an additional 48 h. Cell viability was measured using LDH (Lactate Dehydrogenase) Cytotoxicity Detection Kit (MK401; Takara) according to the manufacturer's instructions.

[2] = among 461 genes significantly downregulated in PD neurons
[3] = among 976 genes significantly upregulated in PD neurons

With CCOC(=O)C1=C(Nc2ccccc2)S/C(=C\c2ccc(OCCOCCOCCOCCNC(=O)CCCOc3ccc(-n4c(SCC(=O)Nc5ccc6cn[nH]c6c5)nnc4-c4ccncc4)cc3)c(O)c2)C1=O [Syn-RiboTAC] the “hexokinase 2 (HK2) expression” value ([1]; PD patient-derived neurons, only gene besides SNCA) was “significantly decreased”, the “number of PD-downregulated genes improved” value [1, 2] was 223 and the “percent of PD-downregulated genes improved” value [1, 2] was 48%. The “number of PD-upregulated genes improved (decreased)” value [1, 3] was 488, the “percent of PD-upregulated genes improved (decreased)” value [1, 3] was 50% and the “cytoprotective effect relative to the binding small molecule” value (SH-SY5Y cells) was 5 -fold.
